Data: patent publication US9597391B2, “Cyclic-dinucleotides and its conjugates as adjuvants and their uses in pharmaceutical compositions” (HELMHOLTZ_ZENTRUM FUER INFEKTIONSFORSCHUNG GMBH, priority 2005, dated 2017)

Key:
Format in all cases: in vivo
spleen cells [1] = assay: ELISPOT of cytokine producing spleen cells from vaccinated mice; conditions: i.n.; restimulation with CD8 epitope peptide (FIG. 10)
Experimental: Experimental protocol: Spleens from vaccinated mice were removed and pooled for analysis of cellular immune responses. The protocol for vaccination was identical to the protocol described in Example 2. Cells were grown in RPMI 1640 supplemented with 10% fetal calf serum, 100 U/ml of penicillin, 50 μg/ml of streptomycin, 5×10^−5 M 2-mercaptoethanol and 1 mM L-glutamine (GIBCO BRL, Karlsruhe, Germany) and maintained at 37° C. in a humidified 5% CO2 atmosphere. […]
For coating ELISPOT plates, said plates were incubated with 100 μl/well of purified capture antibody (10 μg/ml in coating buffer) at 4° C. overnight. After 6× washing steps, the plates were blocked with 200 μl/well of complete RPMI-1640 at room temperature for 1 hour. The activated cells were seeded at 100 μl per well and incubate at 37° C., in a 5% CO2 humidified incubator for 24 hours or 48h hours. After 5× washing steps with washing buffer and 1× step with distilled water, 100 μl/well of the biotinylated detection antibody with a concentration of 1 μg/ml in Assay Diluent was added and incubated at room temperature for 2 hrs. After further washing steps 100 μl/well of the AV-HRP at 1/1000 dilution in Assay Diluent was added and incubated at room temperature for 30 minutes. After further washing steps 100 μl/well of AEC Substrate Solution was added and developed at room temperature for 10-60 minutes until visible spots appeared. After washing steps with (3×) with 200 μl/well distilled water, the plates were air-dried and analyzed by counting the spots by an ELISPOT reader. Each concentration was tested in triplicates.

spleen cells [2] = assay: [3H]thymidine proliferation of spleen cells from vaccinated mice restimulated in vitro with β-gal; conditions: day 38, in vitro restimulation with β-gal
Experimental: Experimental protocol: Spleens were removed and pooled for analysis of cellular immune responses. Cells were grown in RPMI 1640 supplemented with 10% fetal calf serum, 100 U/ml of penicillin, 50 μg/ml of streptomycin, 5×10^−5 M 2-mercaptoethanol and 1 mM L-glutamine (GIBCO BRL, Karlsruhe, Germany) and maintained at 37° C. in a humidified 5% CO2 atmosphere. Spleen cell suspensions were adjusted to 5×10^6 cells/ml in complete medium, cells were seeded with 100 μl per well in a flat-bottomed 96-well microtiter plate (Nunc) and plates were incubated for 4 days in the presence of different concentrations of soluble β-gal. That is, T cell mediated immune responses were investigated at day 38 by measuring the proliferation after in vitro restimulation with β-Gal of cells which have been recovered from spleens before. Said spleen cells were obtained from vaccinated mice—said mice where immunized as described in Example 2—and incubated in the presence of different concentrations of the soluble β-Gal antigen. Each concentration was tested in quadruplicates. During the final 18 h of culture, 1 μCi of [3H]thymidine (Amersham International, Freiburg, Germany) was added to each well. Cells were then harvested on paper filters (Filtermat A; Wallac, Freiburg, Germany) by using a cell harvester (Inotech, Wohlen, Switzerland), and the amount of incorporated [3H]thymidine into the DNA of proliferating cells was determined by a β-scintillation counter (Wallac 1450, Micro-Trilux). The results are expressed as the arithmetic mean of [^3H]thymidine uptake in cpm.
Thirty eight days following vaccination, spleens cells were purified, re-stimulated in vitro in the presence of various amounts of β-galactosidase and their proliferative capacity was estimated by measuring the incorporation of [3H]thymidine into their DNA using a β-scintillation counter.

BALB/c (H-2d) mice [3] = assay: β-gal-specific IgA in lung and vaginal lavages of immunized mice; conditions: i.n. immunization, day 38, versus β-gal alone (FIG. 4, FIG. 5)
Experimental: Experimental protocol: at day 38, mice were sacrificed and the final sampling was performed. Vaginal and lung lavages were obtained by flushing the organs with 1 ml of PBS supplemented with 50 mM EDTA, 0.1% BSA, and 10 mM PMSF. Lavages were then centrifuged to remove debris (10 min at 3000×g), and supernatant fluids were stored at −20° C. To determine the concentration of total IgA present in the lung and vaginal lavages, serial dilutions of the corresponding samples were incubated in microtiter plates that were previously coated with goat anti-mouse IgA (Sigma Chemie), as capture antibodies (100 μl/well). Serial dilutions of purified mouse IgA (Sigma Chemie) were used to generate a standard curve.
To investigate the capacity of c-diGMP and c-diAMP, respectively, to stimulate mucosal responses against antigens co-administered by the i.n. and s.c. route, the production of β-gal-specific IgA in lung was analyzed (FIG. 5 for c-diAMP and FIG. 4 for c-diGMP) from immunized animals, immunized according to the protocol described in Example 2.

BALB/c (H-2d) mice [4] = assay: Serum β-gal-specific IgG ELISA after i.n. or s.c. immunization with β-gal plus adjuvant; conditions: i.n., β-gal 30 μg/dose with or without adjuvant 10 μg; end point titers (FIG. 11; FIG. 2)
Experimental: Experimental protocol: six-eight weeks-old female BALB/c (H-2d) mice were purchased from Harlan Winkelmann GmbH (Borchen, Germany) and treated in accordance with local and European Community guidelines. Groups of 5 mice each were immunized on day 1, 14 and 28 with 30 μg of β-gal (Boehringer, Mannheim, Germany), alone or as an admixture with 10 μg c-diGMP or with 10 μpg c-diAMP. For intranasal (i.n.) immunization, 10 μl were applied to each naris, whereas for the s.c. injection β-gal with or without c-diGMP or c-diAMP was resuspended in a volume of 20 μl PBS per animal. Serum samples were collected at day 38 after immunization and stored at −20° C. prior to determination of β-gal-specific antibodies. 96-well Nunc-Immuno MaxiSorp assay plates (Nunc, Roskilde, Denmark) were coated with 100 μl of β-gal (Boehringer, Mannheim, Germany) at 5 μg/ml in 0.05 M carbonate buffer (pH 8.2) per well. Serial two-fold dilutions of sera in PBS with 1% BSA and 0.05% Tween 20 were added (100 μl/well), and plates incubated for 16h at 37° C. After washing, biotinylated γ-chain-specific goat anti-mouse IgG (Sigma Chemie, Deisenhofen, Germany) was added, and plates were incubated for an additional 1 h at 37° C. After four washes, 100 μl of peroxidase-conjugated streptavidin (Pharmingen) was added to cells and plates incubated at 37° C. for 30 min. After four washes, reactions were developed with ABTS in 0.1 M citrate-phosphate buffer (pH 4.35) containing 0.01% H2O2. Results for c-diGMP are shown as OD405 values after serial two-fold dilutions (FIG. 2). […] The effect of c-diGMP as an adjuvant was independent of the route of administration.
In contrast, in the presence of c-diAMP, i.n. administration of β-gal induced very high titers of specific IgG in all mice with titers higher than 500,000 (FIG. 11).
In view of the above in vitro results, additional in vivo studies have been conducted. […] Thus, the capacity of c-diGMP and c-diAMP, respectively, to stimulate efficient humoral immune responses was evaluated, by determining the serum titers of β-gal-specific antibodies in vaccinated mice.

Substance: β-gal: soluble model antigen β-galactosidase (Boehringer), given alone as comparator without adjuvant
- IFNγ producing cells, i.n. vaccination (spleen cells [1]): scarcely detectable
- proliferation of spleen cells, i.n. immunization (spleen cells [2]; i.n., low amounts of antigen (FIG. 6)): failed to induce detectable cellular proliferation
- proliferation of spleen cells, s.c. immunization (spleen cells [2]; s.c., [3H]thymidine (FIG. 6)): significant proliferative response
- β-gal-specific IgA in lung lavages (BALB/c (H-2d) mice [3]): weak production
- β-gal specific IgG titer in sera, i.n. administration (BALB/c (H-2d) mice [4]): very low antibody titers
